# Assay results: US20160199500A1, “COMPOSITIONS COMPRISING VITAMIN B12 AND INTRINSIC FACTOR AND METHODS OF USE THEREOF” (Syracuse University, priority 2013, published 2016)
# Assays:
# [1] = pre injection of 50 mg two minutes before an 125I-labeled conjugate, mice; cited from earlier work
# cubilin (CUBN) = cubilin (CUBN) (Homo sapiens, UniProt O60494+P27352); conditions: binds CUB domains 5-8, Ca2+ dependent; read-out: Kd of IF-B12 for cubilin; cited from earlier work
# [2] = test system: BeWo cells (cubilin receptor); assay: Uptake and internalization in BeWo cells by confocal microscopy; assay type: cell-based; conditions: conjugates incubated with IF
# Chain of cubilin (CUBN) (O60494 36-3623, species assumed): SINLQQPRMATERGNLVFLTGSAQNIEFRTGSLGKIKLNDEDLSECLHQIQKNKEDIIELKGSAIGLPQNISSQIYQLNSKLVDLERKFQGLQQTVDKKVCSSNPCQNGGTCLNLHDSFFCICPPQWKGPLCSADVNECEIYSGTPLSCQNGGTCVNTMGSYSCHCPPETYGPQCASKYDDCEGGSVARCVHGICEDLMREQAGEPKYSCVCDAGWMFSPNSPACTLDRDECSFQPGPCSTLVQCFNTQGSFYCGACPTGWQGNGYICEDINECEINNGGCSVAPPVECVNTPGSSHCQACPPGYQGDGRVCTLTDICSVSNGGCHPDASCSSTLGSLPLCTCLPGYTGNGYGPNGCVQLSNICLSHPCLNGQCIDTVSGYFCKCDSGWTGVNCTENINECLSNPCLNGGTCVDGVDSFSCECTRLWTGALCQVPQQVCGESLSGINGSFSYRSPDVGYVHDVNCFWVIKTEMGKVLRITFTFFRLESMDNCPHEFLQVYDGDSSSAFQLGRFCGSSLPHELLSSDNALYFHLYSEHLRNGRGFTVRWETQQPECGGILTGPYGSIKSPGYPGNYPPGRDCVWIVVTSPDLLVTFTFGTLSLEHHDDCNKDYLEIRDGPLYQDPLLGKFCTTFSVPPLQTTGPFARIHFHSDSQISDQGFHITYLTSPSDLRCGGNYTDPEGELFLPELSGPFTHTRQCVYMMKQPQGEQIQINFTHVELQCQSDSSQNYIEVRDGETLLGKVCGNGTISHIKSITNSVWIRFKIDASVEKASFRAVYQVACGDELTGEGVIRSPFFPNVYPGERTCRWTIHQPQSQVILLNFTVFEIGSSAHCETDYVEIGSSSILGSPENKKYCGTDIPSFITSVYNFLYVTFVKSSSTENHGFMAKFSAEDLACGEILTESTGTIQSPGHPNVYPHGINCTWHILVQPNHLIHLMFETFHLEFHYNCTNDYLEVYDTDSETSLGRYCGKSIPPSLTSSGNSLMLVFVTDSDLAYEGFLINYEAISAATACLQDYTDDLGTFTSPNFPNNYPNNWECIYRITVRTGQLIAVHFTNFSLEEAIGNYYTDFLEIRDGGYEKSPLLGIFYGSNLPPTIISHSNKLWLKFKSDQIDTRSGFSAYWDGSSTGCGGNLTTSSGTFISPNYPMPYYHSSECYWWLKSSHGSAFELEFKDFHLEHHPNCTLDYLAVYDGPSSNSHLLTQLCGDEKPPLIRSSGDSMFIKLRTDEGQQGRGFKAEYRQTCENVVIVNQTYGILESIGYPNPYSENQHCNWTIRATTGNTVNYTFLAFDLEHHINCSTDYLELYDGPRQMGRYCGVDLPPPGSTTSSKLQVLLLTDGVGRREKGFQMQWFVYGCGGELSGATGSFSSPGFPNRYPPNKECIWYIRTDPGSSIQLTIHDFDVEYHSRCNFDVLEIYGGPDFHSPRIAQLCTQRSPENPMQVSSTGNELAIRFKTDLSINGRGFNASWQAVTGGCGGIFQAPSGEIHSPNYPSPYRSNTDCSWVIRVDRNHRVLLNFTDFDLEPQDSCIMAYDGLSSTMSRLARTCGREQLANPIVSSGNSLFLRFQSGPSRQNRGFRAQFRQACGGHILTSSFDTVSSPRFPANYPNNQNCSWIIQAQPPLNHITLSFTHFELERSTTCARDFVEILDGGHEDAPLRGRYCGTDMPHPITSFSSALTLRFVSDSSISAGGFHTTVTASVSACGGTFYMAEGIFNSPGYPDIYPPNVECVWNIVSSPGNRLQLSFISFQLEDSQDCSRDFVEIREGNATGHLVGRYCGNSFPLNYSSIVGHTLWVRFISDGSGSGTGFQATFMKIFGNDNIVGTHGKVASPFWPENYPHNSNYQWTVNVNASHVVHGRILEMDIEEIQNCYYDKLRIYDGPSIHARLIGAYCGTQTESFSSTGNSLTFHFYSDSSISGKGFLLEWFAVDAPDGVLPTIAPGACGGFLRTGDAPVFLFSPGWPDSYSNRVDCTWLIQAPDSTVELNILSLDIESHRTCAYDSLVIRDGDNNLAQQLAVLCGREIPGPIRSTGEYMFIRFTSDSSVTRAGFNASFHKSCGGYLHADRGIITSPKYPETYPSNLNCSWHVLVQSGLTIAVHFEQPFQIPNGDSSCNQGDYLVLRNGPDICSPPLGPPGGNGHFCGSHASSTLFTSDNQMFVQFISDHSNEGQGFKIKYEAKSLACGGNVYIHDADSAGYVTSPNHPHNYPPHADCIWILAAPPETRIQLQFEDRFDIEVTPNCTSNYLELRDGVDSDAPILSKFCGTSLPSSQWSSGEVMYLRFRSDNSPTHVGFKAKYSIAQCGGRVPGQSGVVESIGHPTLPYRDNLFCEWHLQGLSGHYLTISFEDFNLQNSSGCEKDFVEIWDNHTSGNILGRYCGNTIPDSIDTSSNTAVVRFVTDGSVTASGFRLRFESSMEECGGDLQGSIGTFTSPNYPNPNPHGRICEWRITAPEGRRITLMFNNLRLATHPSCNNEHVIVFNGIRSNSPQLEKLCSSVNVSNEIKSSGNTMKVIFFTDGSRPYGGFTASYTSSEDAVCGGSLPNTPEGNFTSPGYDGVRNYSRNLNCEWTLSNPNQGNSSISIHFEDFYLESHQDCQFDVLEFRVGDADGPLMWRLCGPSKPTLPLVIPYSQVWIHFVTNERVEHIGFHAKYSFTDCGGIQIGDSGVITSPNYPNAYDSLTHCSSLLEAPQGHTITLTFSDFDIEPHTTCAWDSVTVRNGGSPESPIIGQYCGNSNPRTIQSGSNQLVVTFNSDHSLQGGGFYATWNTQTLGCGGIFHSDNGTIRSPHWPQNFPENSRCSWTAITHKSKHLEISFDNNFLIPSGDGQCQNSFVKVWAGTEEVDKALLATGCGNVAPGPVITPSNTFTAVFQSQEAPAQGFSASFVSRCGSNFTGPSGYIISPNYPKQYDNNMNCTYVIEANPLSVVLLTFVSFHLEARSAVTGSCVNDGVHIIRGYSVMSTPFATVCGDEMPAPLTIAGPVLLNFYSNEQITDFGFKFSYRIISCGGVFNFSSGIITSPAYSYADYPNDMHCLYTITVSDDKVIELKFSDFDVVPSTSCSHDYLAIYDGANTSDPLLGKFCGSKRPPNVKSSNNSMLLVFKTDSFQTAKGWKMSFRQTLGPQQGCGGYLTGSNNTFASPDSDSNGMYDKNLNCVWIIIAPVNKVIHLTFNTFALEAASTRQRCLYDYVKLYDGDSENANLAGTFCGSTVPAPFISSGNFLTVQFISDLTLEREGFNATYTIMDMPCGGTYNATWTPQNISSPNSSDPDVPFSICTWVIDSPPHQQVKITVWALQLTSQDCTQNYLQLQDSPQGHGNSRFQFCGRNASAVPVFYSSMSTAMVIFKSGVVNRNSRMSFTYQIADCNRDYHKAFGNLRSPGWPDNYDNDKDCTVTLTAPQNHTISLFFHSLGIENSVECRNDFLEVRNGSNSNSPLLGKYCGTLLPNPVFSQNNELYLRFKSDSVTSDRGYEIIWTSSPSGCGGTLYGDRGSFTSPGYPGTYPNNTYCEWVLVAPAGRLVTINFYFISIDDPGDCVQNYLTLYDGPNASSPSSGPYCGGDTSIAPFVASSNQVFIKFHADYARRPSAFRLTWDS
# Chain of cubilin (CUBN) (P27352 19-417, species assumed): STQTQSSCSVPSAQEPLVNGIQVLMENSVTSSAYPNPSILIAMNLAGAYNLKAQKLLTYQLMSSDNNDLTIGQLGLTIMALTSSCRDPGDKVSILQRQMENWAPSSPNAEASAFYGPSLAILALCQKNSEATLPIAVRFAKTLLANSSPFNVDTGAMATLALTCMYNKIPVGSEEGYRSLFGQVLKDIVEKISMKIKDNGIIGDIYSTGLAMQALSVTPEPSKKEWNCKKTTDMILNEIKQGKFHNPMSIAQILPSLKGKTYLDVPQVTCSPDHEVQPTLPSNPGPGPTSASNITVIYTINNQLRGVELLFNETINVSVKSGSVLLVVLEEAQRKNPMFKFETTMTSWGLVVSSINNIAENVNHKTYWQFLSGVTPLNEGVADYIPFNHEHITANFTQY
compound,measurement,setting,value
"NCCCC[C@H](N)C(=O)O [1-lysine, L-lysine]",decrease of kidney uptake,[1],approximately 95%
"IF-B12: complex of intrinsic factor, a 50 kDa protein, bound to B12",Kd,cubilin (CUBN),~5 nM
IF405: intrinsic factor tagged with Alexa Fluor 405,"binding, uptake or internalization in BeWo cells",[2],shows uptake
